Source: patent US12257070B2, “Pain assessment method based on deep learning model and analysis device” (NEUROGRIN INC., priority 2019, dated 2025)

Tests used:
formalin-induced pain = details: FIG. 10A
Excerpt: The subject animal is a mouse.
The following experimental results are assessment results obtained by inputting an activity value of an individual cell into a neural network constructed using average calcium activity values.
FIG. 10 is divided into baseline (B), early (E), inter (I), late (L), and recovery (R) sections according to time.

[1] = tested on: cerebellar Bergmann glial cells; experiment: pain assessment using the activity of cerebellar Bergmann glial cells; format: in vivo; details: Bergmann glial cell activity image, cerebellar region; FIG. 13B
Excerpt: The researcher analyzed pain assessments based on areas of a brain other than cortical nerve cells. Pain assessment results using cerebellar Bergmann glial cells will be described below. Bergmann glial cells are a type of glial cell as described above. In this case, the deep learning model must be trained in advance with an image showing the activity of Bergmann glial cells of the cerebellum (e.g., a two-photon microscope image of a cerebellar region). The training data may be a two-photon microscope image of a cerebellar region and pain information (normal state or pain state) at the time of generating a corresponding image. The experimental results below are the results of the analysis device inputting individual cell activity values into the average value-based neural network model.
FIG. 13 is a result of assessing pain using the activity of cerebellar Bergmann glial cells. […] The assessment time for capsaicin was a total of 30 minutes, and the activity was assessed for 10 minutes at the time of administration and was further assessed for 10 minutes before and after administration. […] The reference state (Vehicle) is a state in which capsaicin is not injected. Referring to FIG. 13B, it can be seen that the pain assessment result is distinguished as a pain state for about 10 minutes after capsaicin injection. […]

capsaicin-induced pain = capsaicin-induced pain assessed by deep learning model from images of cortical nerve cells; format: in vivo, mouse; details: capsaicin pain state compared to before administration and after pain has subsided; model trained with formalin pain data; FIG. 11A
Excerpt: FIG. 11 is an analysis result for capsaicin-induced pain. FIG. 11 is a result of applying a deep learning model trained with formalin pain data to other pain causes. […] FIG. 11B is an ROC curve showing pain classification performance for FIG. 11A. It can be seen from the ROC curve that the AUC value is 0.93, which is a reliable level.

With `C=O` [Formalin, formalin] the “predicted pain probability (formalin pain)” value (formalin-induced pain; formalin 5% or 1%, sections baseline, early, inter, late, recovery) was “appears only in E (early phase)”.
In the case of `COc1cc(CNC(=O)CCCC/C=C/C(C)C)ccc1O` [capsaicin], the “time distinguished as a pain state after capsaicin injection” value [1] is reported as “about 10 minutes” and the predicted pain probability (capsaicin-induced pain) is reported as “higher”.
With `CCN(CC)CC(=O)Nc1c(C)cccc1C` [lidocaine] the predicted pain probability (formalin-induced pain; analgesic given in addition to a high concentration (5%) of formalin) was “little pain”.
